Laboratory results: US20230111310A1, “CARBOXYLIC ACID DERIVATIVE-SUBSTITUTED IMINO ARYL COMPOUND, PREPARATION METHOD THEREFOR, HERBICIDAL COMPOSITION AND USE THEREOF” (Qingdao Kingagroot Chemical Compound Co., Ltd., priority 2020, published 2023)

test system: Echinochloa crusgalli; test: Weeding effect in post-emergence stage; type: in vivo; conditions: Dose 15 g/ha; level of fresh weight growth control rate
Summary of the method: (§1)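 Weeds were treated post-emergence at 2-3 leaves with compound doses from 7.5 up to 500 g/ha, formulated in acetone–Tween 80 with methyl oleate synergist. Efficacy was assessed as growth control after 3 weeks.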

Structure (SMILES)	Weeding effect in post-emergence stage, Echinochloa crusgalli
C[C@@H](O/N=C/c1cc(-n2c(=O)cc(C(F)(F)F)n(C)c2=O)c(F)cc1Cl)C(=O)OCc1ccccn1 [301(R)]	5 (Level 5: growth control rate is above 85%)
CC[C@@H](O/N=C/c1cc(-n2c(=O)cc(C(F)(F)F)n(C)c2=O)c(F)cc1Cl)C(=O)OC [315(R)]	5 (Level 5: growth control rate is above 85%)
COC[C@@H](O/N=C/c1cc(-n2c(=O)cc(C(F)(F)F)n(C)c2=O)c(F)cc1Cl)C(=O)OC [333(R)]	5 (Level 5: growth control rate is above 85%)

test system: Alopecurus japonicus; test: Weeding effect in post-emergence stage; type: in vivo; conditions: Dose 15 g/ha; level of fresh weight growth control rate
Summary of the method: as §1

Structure (SMILES)	Weeding effect in post-emergence stage, Alopecurus japonicus
C[C@@H](O/N=C/c1cc(-n2c(=O)cc(C(F)(F)F)n(C)c2=O)c(F)cc1Cl)C(=O)OCc1ccccn1 [301(R)]	5 (Level 5: growth control rate is above 85%)
CC[C@@H](O/N=C/c1cc(-n2c(=O)cc(C(F)(F)F)n(C)c2=O)c(F)cc1Cl)C(=O)OC [315(R)]	5 (Level 5: growth control rate is above 85%)
COC[C@@H](O/N=C/c1cc(-n2c(=O)cc(C(F)(F)F)n(C)c2=O)c(F)cc1Cl)C(=O)OC [333(R)]	5 (Level 5: growth control rate is above 85%)

test system: Eleusine indica; test: Weeding effect in post-emergence stage; type: in vivo; conditions: Dose 15 g/ha; level of fresh weight growth control rate
Summary of the method: as §1

Structure (SMILES)	Weeding effect in post-emergence stage, Eleusine indica
C[C@@H](O/N=C/c1cc(-n2c(=O)cc(C(F)(F)F)n(C)c2=O)c(F)cc1Cl)C(=O)OCc1ccccn1 [301(R)]	5 (Level 5: growth control rate is above 85%)
CC[C@@H](O/N=C/c1cc(-n2c(=O)cc(C(F)(F)F)n(C)c2=O)c(F)cc1Cl)C(=O)OC [315(R)]	5 (Level 5: growth control rate is above 85%)
COC[C@@H](O/N=C/c1cc(-n2c(=O)cc(C(F)(F)F)n(C)c2=O)c(F)cc1Cl)C(=O)OC [333(R)]	5 (Level 5: growth control rate is above 85%)

test system: Abutilon theophrasti; test: Weeding effect in post-emergence stage; type: in vivo; conditions: Dose 15 g/ha; level of fresh weight growth control rate
Summary of the method: as §1

Structure (SMILES)	Weeding effect in post-emergence stage, Abutilon theophrasti
C[C@@H](O/N=C/c1cc(-n2c(=O)cc(C(F)(F)F)n(C)c2=O)c(F)cc1Cl)C(=O)OCc1ccccn1 [301(R)]	5 (Level 5: growth control rate is above 85%)
CC[C@@H](O/N=C/c1cc(-n2c(=O)cc(C(F)(F)F)n(C)c2=O)c(F)cc1Cl)C(=O)OC [315(R)]	5 (Level 5: growth control rate is above 85%)
COC[C@@H](O/N=C/c1cc(-n2c(=O)cc(C(F)(F)F)n(C)c2=O)c(F)cc1Cl)C(=O)OC [333(R)]	5 (Level 5: growth control rate is above 85%)

test system: Setaria viridis; test: Weeding effect in post-emergence stage; type: in vivo; conditions: Dose 15 g/ha; level of fresh weight growth control rate
Summary of the method: as §1

Structure (SMILES)	Weeding effect in post-emergence stage, Setaria viridis
C[C@@H](O/N=C/c1cc(-n2c(=O)cc(C(F)(F)F)n(C)c2=O)c(F)cc1Cl)C(=O)OCc1ccccn1 [301(R)]	5 (Level 5: growth control rate is above 85%)
CC[C@@H](O/N=C/c1cc(-n2c(=O)cc(C(F)(F)F)n(C)c2=O)c(F)cc1Cl)C(=O)OC [315(R)]	5 (Level 5: growth control rate is above 85%)
COC[C@@H](O/N=C/c1cc(-n2c(=O)cc(C(F)(F)F)n(C)c2=O)c(F)cc1Cl)C(=O)OC [333(R)]	5 (Level 5: growth control rate is above 85%)

test system: Digitaria sanguinalis; test: Weeding effect in post-emergence stage; type: in vivo; conditions: Dose 15 g/ha; level of fresh weight growth control rate
Summary of the method: as §1

Structure (SMILES)	Weeding effect in post-emergence stage, Digitaria sanguinalis
C[C@@H](O/N=C/c1cc(-n2c(=O)cc(C(F)(F)F)n(C)c2=O)c(F)cc1Cl)C(=O)OCc1ccccn1 [301(R)]	5 (Level 5: growth control rate is above 85%)
CC[C@@H](O/N=C/c1cc(-n2c(=O)cc(C(F)(F)F)n(C)c2=O)c(F)cc1Cl)C(=O)OC [315(R)]	5 (Level 5: growth control rate is above 85%)
COC[C@@H](O/N=C/c1cc(-n2c(=O)cc(C(F)(F)F)n(C)c2=O)c(F)cc1Cl)C(=O)OC [333(R)]	5 (Level 5: growth control rate is above 85%)

test system: corn; test: Pre-emergence stage, crop selectivity; type: in vivo; conditions: 30 g/ha, 4 weeks
Experimental: (§2) The activity level criteria for plant damage (i.e., growth control rate) are as follows:
(§3) The aforementioned seeds of monocotyledonous and dicotyledonous weeds and main crops were put into a plastic pot loaded with soil and covered with 0.5-2 cm soil. The test compounds of the present invention was dissolved with acetone, then added with tween 80, diluted by a certain amount of water to reach a certain concentration, and sprayed immediately after sowing. The obtained seeds were incubated for 4 weeks in the greenhouse after spraying and the test results were observed. It was observed that the herbicide mostly had excellent effect at the application rate of 500, 250, 125, 60, 30, 15, 7.5 g/ha, especially to weeds such as Echinochloa crusgalli. Digitaria sanguinalis and Abutilon theophrasti, etc. And many compounds had good selectivity for corn, cotton, wheat, rice, soybean, and peanut etc. In addition, evaluate the weed control effect with the above activity standard level.

Structure (SMILES)	plant damage level Corn
C[C@@H](O/N=C/c1cc(-n2c(=O)cc(C(F)(F)F)n(C)c2=O)c(F)cc1Cl)C(=O)OCc1ccccn1 [301(R)]	0 (Level 0: growth control rate is less than 5%)
CC[C@@H](O/N=C/c1cc(-n2c(=O)cc(C(F)(F)F)n(C)c2=O)c(F)cc1Cl)C(=O)OC [315(R)]	0 (Level 0: growth control rate is less than 5%)
COC[C@@H](O/N=C/c1cc(-n2c(=O)cc(C(F)(F)F)n(C)c2=O)c(F)cc1Cl)C(=O)OC [333(R)]	0 (Level 0: growth control rate is less than 5%)

test system: cotton; test: Pre-emergence stage, crop selectivity; type: in vivo; conditions: 30 g/ha, 4 weeks
Experimental: as §2, §3

Structure (SMILES)	plant damage level Cotton
C[C@@H](O/N=C/c1cc(-n2c(=O)cc(C(F)(F)F)n(C)c2=O)c(F)cc1Cl)C(=O)OCc1ccccn1 [301(R)]	0 (Level 0: growth control rate is less than 5%)
CC[C@@H](O/N=C/c1cc(-n2c(=O)cc(C(F)(F)F)n(C)c2=O)c(F)cc1Cl)C(=O)OC [315(R)]	0 (Level 0: growth control rate is less than 5%)
COC[C@@H](O/N=C/c1cc(-n2c(=O)cc(C(F)(F)F)n(C)c2=O)c(F)cc1Cl)C(=O)OC [333(R)]	0 (Level 0: growth control rate is less than 5%)

test system: Peanut; test: Pre-emergence stage, crop selectivity; type: in vivo; conditions: 30 g/ha, 4 weeks
Experimental: as §2, §3

Structure (SMILES)	plant damage level Peanut
C[C@@H](O/N=C/c1cc(-n2c(=O)cc(C(F)(F)F)n(C)c2=O)c(F)cc1Cl)C(=O)OCc1ccccn1 [301(R)]	0 (Level 0: growth control rate is less than 5%)
CC[C@@H](O/N=C/c1cc(-n2c(=O)cc(C(F)(F)F)n(C)c2=O)c(F)cc1Cl)C(=O)OC [315(R)]	0 (Level 0: growth control rate is less than 5%)
COC[C@@H](O/N=C/c1cc(-n2c(=O)cc(C(F)(F)F)n(C)c2=O)c(F)cc1Cl)C(=O)OC [333(R)]	0 (Level 0: growth control rate is less than 5%)

test system: Soybeans; test: Pre-emergence stage, crop selectivity; type: in vivo; conditions: 30 g/ha, 4 weeks
Experimental: as §2, §3

Structure (SMILES)	plant damage level Soybeans
C[C@@H](O/N=C/c1cc(-n2c(=O)cc(C(F)(F)F)n(C)c2=O)c(F)cc1Cl)C(=O)OCc1ccccn1 [301(R)]	0 (Level 0: growth control rate is less than 5%)
CC[C@@H](O/N=C/c1cc(-n2c(=O)cc(C(F)(F)F)n(C)c2=O)c(F)cc1Cl)C(=O)OC [315(R)]	0 (Level 0: growth control rate is less than 5%)
COC[C@@H](O/N=C/c1cc(-n2c(=O)cc(C(F)(F)F)n(C)c2=O)c(F)cc1Cl)C(=O)OC [333(R)]	0 (Level 0: growth control rate is less than 5%)

test system: Descurainia sophia; test: Weeding effect in pre-emergence stage; type: in vivo; conditions: 30 g/ha, 4 weeks
Experimental: as §2, §3

Structure (SMILES)	activity level (growth control rate) Descurainia sophia
C[C@@H](O/N=C/c1cc(-n2c(=O)cc(C(F)(F)F)n(C)c2=O)c(F)cc1Cl)C(=O)OCc1ccccn1 [301(R)]	5 (Level 5: growth control rate is above 85%)
CC[C@@H](O/N=C/c1cc(-n2c(=O)cc(C(F)(F)F)n(C)c2=O)c(F)cc1Cl)C(=O)OC [315(R)]	5 (Level 5: growth control rate is above 85%)
COC[C@@H](O/N=C/c1cc(-n2c(=O)cc(C(F)(F)F)n(C)c2=O)c(F)cc1Cl)C(=O)OC [333(R)]	5 (Level 5: growth control rate is above 85%)

test system: Capsella bursa-pastoris; test: Weeding effect in pre-emergence stage; type: in vivo; conditions: 30 g/ha, 4 weeks
Experimental: as §2, §3

Structure (SMILES)	activity level (growth control rate) Capsella bursa-pastoris
C[C@@H](O/N=C/c1cc(-n2c(=O)cc(C(F)(F)F)n(C)c2=O)c(F)cc1Cl)C(=O)OCc1ccccn1 [301(R)]	5 (Level 5: growth control rate is above 85%)
CC[C@@H](O/N=C/c1cc(-n2c(=O)cc(C(F)(F)F)n(C)c2=O)c(F)cc1Cl)C(=O)OC [315(R)]	5 (Level 5: growth control rate is above 85%)
COC[C@@H](O/N=C/c1cc(-n2c(=O)cc(C(F)(F)F)n(C)c2=O)c(F)cc1Cl)C(=O)OC [333(R)]	5 (Level 5: growth control rate is above 85%)

test system: Amaranthus retroflexus; test: Weeding effect in pre-emergence stage; type: in vivo; conditions: 30 g/ha, 4 weeks
Experimental: as §2, §3

Structure (SMILES)	activity level (growth control rate) Amaranthus retroflexus
C[C@@H](O/N=C/c1cc(-n2c(=O)cc(C(F)(F)F)n(C)c2=O)c(F)cc1Cl)C(=O)OCc1ccccn1 [301(R)]	5 (Level 5: growth control rate is above 85%)
CC[C@@H](O/N=C/c1cc(-n2c(=O)cc(C(F)(F)F)n(C)c2=O)c(F)cc1Cl)C(=O)OC [315(R)]	5 (Level 5: growth control rate is above 85%)
COC[C@@H](O/N=C/c1cc(-n2c(=O)cc(C(F)(F)F)n(C)c2=O)c(F)cc1Cl)C(=O)OC [333(R)]	5 (Level 5: growth control rate is above 85%)

test system: Abutilon theophrasti; test: Weeding effect in pre-emergence stage; type: in vivo; conditions: 30 g/ha, 4 weeks
Experimental: as §2, §3

Structure (SMILES)	activity level (growth control rate) Abutilon theophrasti
C[C@@H](O/N=C/c1cc(-n2c(=O)cc(C(F)(F)F)n(C)c2=O)c(F)cc1Cl)C(=O)OCc1ccccn1 [301(R)]	5 (Level 5: growth control rate is above 85%)
CC[C@@H](O/N=C/c1cc(-n2c(=O)cc(C(F)(F)F)n(C)c2=O)c(F)cc1Cl)C(=O)OC [315(R)]	5 (Level 5: growth control rate is above 85%)
COC[C@@H](O/N=C/c1cc(-n2c(=O)cc(C(F)(F)F)n(C)c2=O)c(F)cc1Cl)C(=O)OC [333(R)]	5 (Level 5: growth control rate is above 85%)

test system: Setaria viridis; test: Weeding effect in pre-emergence stage; type: in vivo; conditions: 30 g/ha, 4 weeks
Experimental: as §2, §3

Structure (SMILES)	activity level (growth control rate) Setaria viridis
C[C@@H](O/N=C/c1cc(-n2c(=O)cc(C(F)(F)F)n(C)c2=O)c(F)cc1Cl)C(=O)OCc1ccccn1 [301(R)]	5 (Level 5: growth control rate is above 85%)
CC[C@@H](O/N=C/c1cc(-n2c(=O)cc(C(F)(F)F)n(C)c2=O)c(F)cc1Cl)C(=O)OC [315(R)]	5 (Level 5: growth control rate is above 85%)
COC[C@@H](O/N=C/c1cc(-n2c(=O)cc(C(F)(F)F)n(C)c2=O)c(F)cc1Cl)C(=O)OC [333(R)]	5 (Level 5: growth control rate is above 85%)

test system: Veronica didyma Tenore; test: Weeding effect in pre-emergence stage; type: in vivo; conditions: 30 g/ha, 4 weeks
Experimental: as §2, §3

Structure (SMILES)	activity level (growth control rate) Veronica didyma Tenore
C[C@@H](O/N=C/c1cc(-n2c(=O)cc(C(F)(F)F)n(C)c2=O)c(F)cc1Cl)C(=O)OCc1ccccn1 [301(R)]	5 (Level 5: growth control rate is above 85%)
CC[C@@H](O/N=C/c1cc(-n2c(=O)cc(C(F)(F)F)n(C)c2=O)c(F)cc1Cl)C(=O)OC [315(R)]	5 (Level 5: growth control rate is above 85%)
COC[C@@H](O/N=C/c1cc(-n2c(=O)cc(C(F)(F)F)n(C)c2=O)c(F)cc1Cl)C(=O)OC [333(R)]	5 (Level 5: growth control rate is above 85%)
